9 compounds from PubChem BioAssay (NCI) can be followed below.

Holding throughout (experiment): growth of human tumour cells (NCI), 48 h
Assay [1] relates to DU-145 prostate.
Assay [2] concerns U251 CNS.
The subject of assay [3] is UO-31 renal.
Assay [4] has as its system HCC-2998 colon.
For assay [5], the system named is OVCAR-3 ovarian.
Assay [6] has as its system MOLT-4 leukemia.
For assay [7], the system named is OVCAR-4 ovarian.
The test system of assay [8] is CAKI-1 renal.
Assay [9] has as its system OVCAR-8 ovarian.
In assay [10] the test system is NCI-H522 lung.

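In this assay, cells in 96-well plates receive the compound at five concentrations for 48 hours. Endpoints are linearly interpolated between the surrounding concentrations. GI50 marks 50% less growth. Definition used: TGI = concentration required for complete inhibition of growth.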

Turning to `NC(=O)c1ccc(Oc2nccc(-c3c(-c4ccc(F)cc4)ncn3C3CCNCC3)n2)cc1`, the GI50 in assay [1], in assay [2], in assay [3], in assay [4], in assay [5] and in assay [6] was more than 25 µM each time. Moreover, the GI50 in [7], in assay [8], in assay [9] and in assay [10] was more than 25 µM each time. In addition, the TGI in [1], in assay [2], in [3], in assay [4], in [5] and in assay [6] was more than 25 µM in each case. The TGI in [7], in [8], in assay [9] and in [10] was more than 25 µM each time.
In the case of `Cc1c(C#N)cccc1[C@@H](C)Nc1nnc(C)c2cnc(N3CCOCC3)cc12`, the GI50 is 27.7 µM in assay [1]; 29.8 µM in [2]; 15.1 µM in assay [3]; 53.9 µM in assay [4]; 14.5 µM in [5]; 28.3 µM in [6]. In addition, the GI50 in assay [7] is 13.9 µM; in assay [8] it was 0.7 µM; in [9] it was 38.5 µM; in assay [10], 17.5 µM. The TGI in [1] is more than 100 µM; in assay [2], more than 100 µM; in assay [3] it was more than 100 µM; in assay [4], more than 100 µM; in [5], 66.1 µM; in assay [6], 90.6 µM. In addition, the TGI is 61.8 µM in assay [7], more than 100 µM in assay [8], more than 100 µM in [9] and more than 100 µM in assay [10].
Consider `CNCCCNc1nc2ccccc2c2c(=O)c3cc(OC)ccc3sc12`, for which the GI50 is 1.78 µM in assay [1]; 1.81 µM in [2]; 1.42 µM in assay [3]; 1.82 µM in [4]; 1.82 µM in assay [5]; 2.06 µM in assay [6]. For the same compound, the GI50 is 1.96 µM in assay [7], 1.66 µM in assay [8], 2.17 µM in [9] and 1.84 µM in [10]. In addition, the TGI amounted to 3.23 µM in assay [1]; 3.71 µM in assay [2]; 2.75 µM in [3]; 3.49 µM in assay [4]; 3.43 µM in assay [5]; 4.41 µM in assay [6]. The TGI in [7] came to 4.03 µM; in assay [8] it was 3.17 µM; in assay [9] it was 5.34 µM; in assay [10], 3.88 µM.
In the case of `COc1ccccc1S(=O)(=O)Nc1ccc2c3c(cc(CCC(=O)NCCCCNc4cccc5c4C(=O)N(C4CCC(=O)NC4=O)C5=O)cc13)C(=O)N2C` (stereo not drawn), the GI50 in assay [1] is 5.68 µM; in assay [2], more than 63.4 µM; in assay [3], 2.4 µM; in [5], 2.21 µM; in [6], 0.0352 µM; in assay [7] it was 0.259 µM. Moreover, the GI50 was 2.31 µM in [8], 0.346 µM in [9] and 4.22 µM in assay [10]. Also, the TGI was more than 100 µM in [1]; more than 100 µM in assay [2]; more than 100 µM in [3]; more than 100 µM in assay [5]; 1.44 µM in [7]; more than 100 µM in assay [8]. The TGI in assay [9] and in [10] was more than 100 µM throughout.
Take `COC(=O)Nc1nc2ccccc2[nH]1`: the TGI in assay [1] is more than 87 µM; in assay [2] it was more than 100 µM; in assay [3], more than 100 µM; in assay [4], more than 100 µM; in assay [5], 28.6 µM; in assay [6] it was more than 100 µM. In addition, the figures for the TGI in assay [7], in assay [8] and in assay [9] were more than 100 µM, more than 100 µM and more than 89.1 µM, respectively.
For the compound `COC(=O)c1c(-c2cccs2)oc(-c2cccs2)c1C(=O)OC`, the GI50 in assay [1] was more than 100 µM; in assay [2], 59.6 µM; in assay [3] it was 19.3 µM; in [4], 36.2 µM; in [5], 30.4 µM; in assay [7], 77.8 µM. In addition, the figures for the GI50 in [8], in [9] and in assay [10] were 26.7 µM, 37.6 µM and 25.5 µM, respectively. In addition, the TGI in assay [1] was more than 100 µM; in assay [2] it was more than 100 µM; in assay [3] it was 60.1 µM; in assay [4], more than 82.8 µM; in [5], more than 94.5 µM; in assay [7], more than 100 µM. Besides, the TGI in [8] is 69.3 µM; in [9], more than 100 µM; in assay [10], 69.7 µM.
For the compound `CN(C)CCCn1c(=O)c2ccccc2c2cnc3[nH]ccc3c21`, the GI50 in [1] was 2.14 µM; in [2], 2.12 µM; in assay [4] it was 2.03 µM; in assay [5] it was 2.4 µM; in [6] it was 0.838 µM; in [7] it was 1.92 µM. In addition, the GI50 in assay [8] is 1.94 µM; in [9] it was 1.43 µM; in assay [10] it was 1.82 µM. In addition, the TGI in [1] worked out at 8.97 µM; in assay [2], 7.21 µM; in assay [4], 7.72 µM; in [5], 6.35 µM; in assay [6], 11 µM; in assay [7] it was 8.63 µM. The TGI amounted to 4.66 µM in assay [8], 6.88 µM in assay [9] and 5.03 µM in assay [10].
In the case of `Clc1ccc(-c2c3ccc(=[N+]4CCCCC4)cc-3oc3cc(N4CCCCC4)ccc23)cc1`, the GI50 in assay [1] was 0.0632 µM; in assay [4], 0.12 µM; in assay [5], 0.132 µM; in [6], 0.159 µM. For the same compound, the TGI in assay [1] worked out at 0.214 µM; in assay [4], 0.248 µM; in assay [5] it was 0.274 µM; in [6] it was 0.741 µM.
Regarding `C#CC1=CC(=O)C(OC)=CC1=O`, the TGI in assay [1] was 37.4 µM; in [2], more than 100 µM; in assay [3], 14.3 µM; in assay [4] it was 81.5 µM; in assay [5], more than 100 µM; in assay [6] it was more than 100 µM. For the same compound, the results for the TGI in [8] and in assay [10] were 42.6 µM and 4.2 µM, respectively.
